{"source": "paper PMC9404711", "about": "(Antibiotics, 2022)", "key": {"[1]": {"tested_on": "A. baumannii (ATCC 19606)", "type": "cell-based, Acinetobacter baumannii", "details": "A. baumannii ATCC 19606, MHB-II, 37 °C, 18–24 h, triplicate", "description": "(§1) The following bacteria were grown in cation-adjusted Muller-Hinton broth at 37 °C with shaking: A. baumannii (ATCC 19606), E. coli (ATCC 25922), K. pneumoniae (ATCC 13883), P. aeruginosa (ATCC 27853), and S. aureus (ATCC 29213).\n(§2) The MIC experiments were performed in triplicate, as described in Jensen et al.. Briefly, all peptide stock solutions were prepared by dissolving each peptide in Milli-Q water to obtain a concentration of 10 mg/mL. A bacterial concentration of 10^6 CFU/mL was obtained through the dilution of an overnight culture (MHB-II medium). When the overnight culture was prepared, the OD was measured using a spectrophotometer and when an OD value between 0.2 and 0.4 was obtained, the culture was diluted to OD = 0.002. The MIC determination was carried out in 96-well polypropylene microtitre plates. […] A final bacterial inoculum of 5 × 10^5 CFU/mL per well was obtained by adding 50 μL bacterial suspension to the microtiter plates. The plates were incubated at 37 °C for 18–24 h. To verify the CFU, 10 μL of bacteria suspension was transferred to 990 μL 0.9 % saline solution, from which a 10-fold dilution was carried out. Then, 100 μL of the dilution was plated on an LB plate and left for bacterial growth overnight at 37 °C. Colistin and vancomycin were used as the positive controls."}, "human erythrocytes": {"tested_on": "human erythrocytes", "details": "150 μM peptide; 0.5% (v/v) red blood cell suspension in PBS, 1 h at 37 °C, absorbance 414 nm; melittin positive control, PBS negative control; three wells", "quoted_text": "PBS served as the negative control and 5 μM melittin served as the positive control. All melittin solutions were prepared in Protein LoBind Eppendorf tubes to prevent the adsorption of melittin to the inner surface of the tubes.\nPreparation of peptide solutions and melittin: A 5 μM melittin solution in PBS was prepared the day before the hemolysis experiment. First, 150 μL of this solution was transferred to each of the positive control wells and stored in the fume hood to coat the wells. On the day of the experiment, the melittin solution was discarded and the wells were washed with 3 × PBS. A 2.5 μM melittin solution in PBS was prepared and 75 μL was transferred to the wells. PBS (150 μL) was used as the negative control. A solution of each peptide was prepared by dissolving the peptide in 0.5 mL PBS to obtain a concentration of 300 μM. Each peptide solution (150 μL) was transferred to the wells in three wells each in row A, and the plate was diluted down.\nPreparation of the red blood cell suspension: 1 mL of type O- whole blood in citrate was transferred to a cryotube. The whole blood was washed with 3 × PBS; adding 3, 3, and 4 mL of PBS, respectively. In between, the blood was centrifuged for 8 min (3000, 3000, and 4000 rpm, respectively) and the supernatant was removed after each centrifugation. A 0.5% (v/v) blood suspension was prepared by adding 40 μL of the washed blood cells to 8 mL of PBS. Then, 75 μL of the red blood cell suspension was transferred to each well and mixed gently. The plate was sealed and incubated for 1 h at 37 °C. After incubation, the plate was centrifuged at 4000 rpm for 10 min. Afterwards, 60 μL of the supernatant from each well was quickly transferred to an ELISA plate.\nThe absorbance was determined at 414 nm, and Equation (1) below was used to calculate the hemolytic activity of the peptides."}, "[2]": {"assay": "Hydrophobicity by analytical RP-HPLC (%B at elution)", "type": "physicochemical", "details": "chromatographic, analytical reversed-phase HPLC, Waters Symmetry C18 5 μm 4.6 × 250 mm; A: H2O + 0.1% TFA, B: 90:10 ACN-H2O + 0.1% TFA", "description": "Peptide purity was determined as described previously by analytical RP-HPLC using a Waters 717 plus Autosampler, In-line Degasser AF, 600 Controller, and 2996 Photodiode Array Detector; the column used was a Waters Symmetry C18 column (5 μm, 4.6 mm × 250 mm, Milford, MA, USA). An aqueous acetonitrile (ACN) gradient with 0.1% TFA added (mixing eluent A: H2O + 0.1% TFA and eluent B: 90:10 ACN-H2O + 0.1% TFA) was employed using milli-Q water. Preparative RP-HPLC was performed by using a Waters XSelect Peptide CSH C18 OBDTM column (5 μm, 19 mm × 250 mm, Milford, MA, USA) with the same eluents as for analytical HPLC.\n*Hydrophobicity as indicated by the percentage of mobile phase B (%B) at the peak elution time on analytical"}, "[3]": {"tested_on": "K. pneumoniae (ATCC 13883)", "type": "cell-based, Klebsiella pneumoniae", "details": "K. pneumoniae ATCC 13883, MHB-II, 37 °C, 18–24 h, triplicate", "description": "as §1, §2"}, "S. aureus (ATCC 29213)": {"tested_on": "S. aureus (ATCC 29213)", "assay": "MIC determination, broth microdilution", "type": "cell-based, Staphylococcus aureus", "details": "S. aureus ATCC 29213, MHB-II, 37 °C, 18–24 h, triplicate", "description": "as §1, §2"}, "E. coli (ATCC 25922)": {"tested_on": "E. coli (ATCC 25922)", "type": "cell-based, Escherichia coli", "details": "E. coli ATCC 25922, MHB-II, 37 °C, 18–24 h, triplicate", "description": "as §1, §2"}, "[4]": {"tested_on": "P. aeruginosa (ATCC 27853)", "type": "cell-based, Pseudomonas aeruginosa", "details": "P. aeruginosa ATCC 27853, MHB-II, 37 °C, 18–24 h, triplicate", "description": "as §1, §2"}, "[5]": {"tested_on": "colistin-susceptible strain A. baumannii ATCC 19606", "details": "at 4 × MIC and above; cited from earlier work"}, "E. coli": {"tested_on": "E. coli", "assay": "Time-kill assay", "type": "cell-based, Escherichia coli", "details": "start 5 × 10^5 CFU/mL, MHB-II 37 °C, n = 3", "description": "The limit of detection was set to 10 CFU/mL, corresponding to a single viable colony after the overnight incubation of 100 μL bacteria suspension on an agar plate.\nAn overnight culture (MHB-II media) of E. coli was diluted 1:100 in preheated MHB-II, placed in a water bath (37 °C), and allowed to grow until OD600 = 0.2–0.4 was reached. The bacterial suspension was then diluted 1:10 in 25 mL preheated MHB-II, placed in a water bath (37 °C), and then allowed to grow until an OD = 0.2 was reached. […] At time points 0, 1, 3, 5, and 24 h, 250 μL of each sample suspension were transferred to a 0.9 % saline solution in a 1-mL Eppendorf tube. The bacterial cells were washed twice in 0.9% saline, spun down (10,000× g for 5 min) and resuspended in 250 μL 0.9% saline. Then, 10-fold dilution series were prepared and aliquots of 10 μL were spotted onto LB Agar. In addition, 100 μL of undiluted bacterial suspension (except the control sample) was plated out on a separate LB plate. All of the plates were incubated (37 °C) overnight and the results were read after incubation."}}, "note": "Read-outs that look alike come from different tables or passages of the source. Non-standard residues stand in square brackets, D forms with d. Residues, ends and D or L forms follow the SMILES beside them.", "data": [{"smiles": "CCCCCCCCCC(=O)N[C@H](CCCCN)C(=O)N[C@H](CCCCN)C(=O)N[C@H](CC(C)C)C(=O)N[C@H](Cc1ccccc1)C(=O)N[C@H](CCCCN)C(=O)N[C@H](CCCCN)C(=O)N[C@@H](C(=O)N[C@H](CC(C)C)C(=O)N1CCCC[C@H](C(N)=O)NC(=O)[C@@H](Cc2ccc(O)cc2)NC(=O)[C@@H](CCCNC(=N)N)NC(=O)C1)[C@H](C)CC", "note": "[compound 10]", "values": [{"measurement": "MIC AB", "setting": "[1]; inoculum 5 × 10^5 CFU/mL", "result": 4, "unit": "µg/mL"}, {"measurement": "MIC AB", "setting": "[1]; value in brackets", "result": 2.4, "unit": "µM"}, {"measurement": "% hemolysis of human erythrocytes", "setting": "human erythrocytes", "result": 81, "unit": "%"}, {"measurement": "%B (hydrophobicity: percentage of mobile phase B at the peak elution time)", "setting": "[2]", "result": 62.7, "unit": "%B"}, {"measurement": "MIC KP", "setting": "[3]; inoculum 5 × 10^5 CFU/mL", "result": 8, "unit": "µg/mL"}, {"measurement": "MIC KP", "setting": "[3]; value in brackets", "result": 4.8, "unit": "µM"}, {"measurement": "MIC SA", "setting": "S. aureus (ATCC 29213); inoculum 5 × 10^5 CFU/mL", "result": 4, "unit": "µg/mL"}, {"measurement": "MIC SA", "setting": "S. aureus (ATCC 29213); value in brackets", "result": 2.4, "unit": "µM"}, {"measurement": "MIC EC", "setting": "E. coli (ATCC 25922); inoculum 5 × 10^5 CFU/mL", "result": 4, "unit": "µg/mL"}, {"measurement": "MIC EC", "setting": "E. coli (ATCC 25922); value in brackets", "result": 2.4, "unit": "µM"}, {"measurement": "MIC PA", "setting": "[4]; inoculum 5 × 10^5 CFU/mL", "result": 4, "unit": "µg/mL"}, {"measurement": "MIC PA", "setting": "[4]; value in brackets", "result": 2.4, "unit": "µM"}]}, {"smiles": "CC[C@@H](C)[C@@H](NC(=O)[C@@H](CCCCN)NC(=O)[C@@H](CCCCN)NC(=O)[C@@H](Cc1ccccc1)NC(=O)[C@@H](CC(C)C)NC(=O)[C@@H](CCCCN)NC(=O)[C@H](N)CCCCN)C(=O)N[C@H](CC(C)C)C(=O)N[C@H](CCCNC(=N)N)C(=O)N[C@H](Cc1ccc(O)cc1)C(=O)N[C@H](CC(C)C)C(N)=O", "note": "[BP214, reference compound] (H-[dK][dK][dL][dF][dK][dK][dI][dL][dR][dY][dL]-NH2; N-terminus assumed)", "values": [{"measurement": "MIC AB", "setting": "[1]; inoculum 5 × 10^5 CFU/mL", "result": 2, "unit": "µg/mL"}, {"measurement": "MIC AB", "setting": "[1]; value in brackets", "result": 1.4, "unit": "µM"}, {"measurement": "%B (hydrophobicity: percentage of mobile phase B at the peak elution time)", "setting": "[2]", "result": 50.8, "unit": "%B"}, {"measurement": "MIC KP", "setting": "[3]; inoculum 5 × 10^5 CFU/mL", "result": 2, "unit": "µg/mL"}, {"measurement": "MIC KP", "setting": "[3]; value in brackets", "result": 1.4, "unit": "µM"}, {"measurement": "MIC SA", "setting": "S. aureus (ATCC 29213); inoculum 5 × 10^5 CFU/mL", "result": 8, "unit": "µg/mL"}, {"measurement": "MIC SA", "setting": "S. aureus (ATCC 29213); value in brackets", "result": 5.5, "unit": "µM"}, {"measurement": "MIC EC", "setting": "E. coli (ATCC 25922); inoculum 5 × 10^5 CFU/mL", "result": 4, "unit": "µg/mL"}, {"measurement": "MIC EC", "setting": "E. coli (ATCC 25922); value in brackets", "result": 2.8, "unit": "µM"}, {"measurement": "MIC PA", "setting": "[4]; inoculum 5 × 10^5 CFU/mL", "result": 4, "unit": "µg/mL"}, {"measurement": "MIC PA", "setting": "[4]; value in brackets", "result": 2.8, "unit": "µM"}, {"measurement": "number of CFU in time-kill", "setting": "[5]", "result": "below the detection level"}]}, {"smiles": "CCCCCCCCCC(=O)N[C@H](CCCCN)C(=O)N[C@H](CCCCN)C(=O)N[C@H](CC(C)C)C(=O)N[C@H](Cc1ccccc1)C(=O)N[C@H](CCCCN)C(=O)N[C@H](CCCCN)C(=O)N1CCCC[C@H](C(N)=O)NC(=O)[C@@H](Cc2ccc(O)cc2)NC(=O)[C@@H](CCCNC(=N)N)NC(=O)[C@@H](CC(C)C)NC(=O)[C@@H]([C@H](C)CC)NC(=O)C1", "note": "[compound 16]", "values": [{"measurement": "MIC AB", "setting": "[1]; inoculum 5 × 10^5 CFU/mL", "result": 4, "unit": "µg/mL"}, {"measurement": "MIC AB", "setting": "[1]; value in brackets", "result": 2.4, "unit": "µM"}, {"measurement": "% hemolysis of human erythrocytes", "setting": "human erythrocytes", "result": 59, "unit": "%"}, {"measurement": "%B (hydrophobicity: percentage of mobile phase B at the peak elution time)", "setting": "[2]", "result": 61.3, "unit": "%B"}, {"measurement": "MIC KP", "setting": "[3]; inoculum 5 × 10^5 CFU/mL", "result": 16, "unit": "µg/mL"}, {"measurement": "MIC KP", "setting": "[3]; value in brackets", "result": 9.7, "unit": "µM"}, {"measurement": "MIC SA", "setting": "S. aureus (ATCC 29213); inoculum 5 × 10^5 CFU/mL", "result": 4, "unit": "µg/mL"}, {"measurement": "MIC SA", "setting": "S. aureus (ATCC 29213); value in brackets", "result": 2.4, "unit": "µM"}, {"measurement": "MIC EC", "setting": "E. coli (ATCC 25922); inoculum 5 × 10^5 CFU/mL", "result": 8, "unit": "µg/mL"}, {"measurement": "MIC EC", "setting": "E. coli (ATCC 25922); value in brackets", "result": 4.8, "unit": "µM"}, {"measurement": "MIC PA", "setting": "[4]; inoculum 5 × 10^5 CFU/mL", "result": 8, "unit": "µg/mL"}, {"measurement": "MIC PA", "setting": "[4]; value in brackets", "result": 4.8, "unit": "µM"}]}, {"smiles": "CCCCCCCCCC(=O)N[C@H](CCCCN)C(=O)N[C@H](CCCCN)C(=O)N[C@H](CC(C)C)C(=O)N[C@H](Cc1ccccc1)C(=O)N[C@H](CCCCN)C(=O)N[C@H](CCCCN)C(=O)N[C@@H](C(=O)N1CCCC[C@H](C(N)=O)NC(=O)[C@@H](Cc2ccc(O)cc2)NC(=O)[C@@H](CCCNC(=N)N)NC(=O)[C@@H](CC(C)C)NC(=O)C1)[C@H](C)CC", "note": "[compound 13]", "values": [{"measurement": "MIC AB", "setting": "[1]; inoculum 5 × 10^5 CFU/mL", "result": 2, "unit": "µg/mL"}, {"measurement": "MIC AB", "setting": "[1]; value in brackets", "result": 1.2, "unit": "µM"}, {"measurement": "viable cells after 24 h", "setting": "E. coli; 3 × MIC (12 μg/mL)", "result": "10^3 CFU/mL"}, {"measurement": "viable cells after 24 h", "setting": "E. coli; 5 × MIC (20 μg/mL)", "result": "10^2 CFU/mL"}, {"measurement": "%B (hydrophobicity: percentage of mobile phase B at the peak elution time)", "setting": "[2]", "result": 60.9, "unit": "%B"}, {"measurement": "MIC KP", "setting": "[3]; inoculum 5 × 10^5 CFU/mL", "result": 16, "unit": "µg/mL"}, {"measurement": "MIC KP", "setting": "[3]; value in brackets", "result": 9.6, "unit": "µM"}, {"measurement": "MIC SA", "setting": "S. aureus (ATCC 29213); inoculum 5 × 10^5 CFU/mL", "result": 8, "unit": "µg/mL"}, {"measurement": "MIC SA", "setting": "S. aureus (ATCC 29213); value in brackets", "result": 4.8, "unit": "µM"}, {"measurement": "MIC EC", "setting": "E. coli (ATCC 25922); inoculum 5 × 10^5 CFU/mL", "result": 4, "unit": "µg/mL"}, {"measurement": "MIC EC", "setting": "E. coli (ATCC 25922); value in brackets", "result": 2.4, "unit": "µM"}, {"measurement": "MIC PA", "setting": "[4]; inoculum 5 × 10^5 CFU/mL", "result": 8, "unit": "µg/mL"}, {"measurement": "MIC PA", "setting": "[4]; value in brackets", "result": 4.8, "unit": "µM"}]}]}
